Reference: patent US6399637B1, “Crystal modification of torasemide” (PLIVA, farmaceutska, kemijska, prehrambena i kozmeticka …, priority 1998, dated 2002)

Assays:
Format in all cases: physicochemical
[1] = Stability of the crystal modification on storage and at increased humidity
[2] = Dissolution test in artificial intestinal juice (USP 23)
Method: (§1) The microcrystallinic modifications I, II and III of torasemide prepared according to Acta Crst. B34 (1978), 1304-1310 and Example 1 were subjected to dissolution testing in water, and in artificial intestinal juice, at 37° C.

[3] = Dissolution test of torasemide in water (USP 23); settings: for % Dissolved torasemide: water, USP 23, 37° C., 50 rpm., 1000 ml
Method: as §1

[4] = Intrinsic Dissolution Rate in a model of artificial gastric juice

SMILES | stability of the crystal modification (no transformation into modification I or II) ([1]; normal storage conditions) | stability of the crystal modification (no transformation into modification I or II) ([1]; subjected to increased humidity) | dissolution profile (USP 23) in comparison to known crystal modifications I and II [2] | dissolution profile (USP 23) in comparison to known crystal modifications I and II ([3]; in water) | % Dissolved torasemide ([3]; 0 minutes) [%] | % Dissolved torasemide ([3]; 10 minutes) [%] | % Dissolved torasemide ([3]; 20 minutes) [%] | % Dissolved torasemide ([3]; 30 minutes) [%] | % Dissolved torasemide ([3]; 40 minutes) [%] | % Dissolved torasemide ([3]; 50 minutes) [%] | % Dissolved torasemide ([3]; 60 minutes) [%] | IDR (Intrinsic Dissolution Rate) [4]
Cc1cccc(Nc2ccncc2S(=O)(=O)NC(=O)NC(C)C)c1 [Mod. III, N-(1-methylethylaminocarbonyl)-4-(3-methyl-phenylamino)-3-pyridinesulfonamide] | stable | stable | significant difference | significant difference | 0 | 15.6 | 28.1 | 37.7 | 43.6 | 48.5 | 51.1 | exceeds 1 mg cm^−2min^−1
Cc1cccc(Nc2ccncc2S(=O)(=O)NC(=O)NC(C)C)c1 [Mod. II, N-(1-methylethylaminocarbonyl)-4-(3-methyl-phenylamino)-3-pyridinesulfonamide] | – | – | – | – | 0 | 15.1 | 27.8 | 39.2 | 48.8 | 56.3 | 65.1 | –
Cc1cccc(Nc2ccncc2S(=O)(=O)NC(=O)NC(C)C)c1 [Mod. I, N-(1-methylethylaminocarbonyl)-4-(3-methyl-phenylamino)-3-pyridinesulfonamide] | – | – | – | – | 0 | 6.7 | 13.0 | 18.5 | 23.5 | 28.5 | 32.8 | –
